US10660789B2, “1,4-dihydropyridine derivatives with HSP modulating activity” (Richter Gedeon NYRT., priority 2011, dated 2020)
Structures can show the parent of a compound that is named as a salt.

Columns and labels:
[1] = system: Hsp70 promoter; assay: Hsp promoter probing, Hsp70 promoter-YFP reporter, flow cytometry (Table 3); format: cell-based, mouse and human; set-up: key: +: co-inducing activity; −: silencing activity; 0: with the experimental methods applied no other HSP modulating effects could be identified; details: heat shock 42° C. 1 h, 16 h recovery; B16 or SHSY5Y reporter cells, cell line per value not stated
Description: (§1) The Hsp co-inducing effect of the compounds on stress response was tested on B16 mouse melanoma and SHSY5Y human neuroblastoma cell lines stably transfected with Hsp promoter probing plasmids. This kind of promoter probing, using the promoter region of a given gene conjugated with fluorescent protein is used as a best and fastest test system for finding drugs which modulate the activity of the gene followed by the given promoter (Wyshocka et al., Mol. Cel. Biochem. 215:153-156, 2000).
The Hsp encoding genes are transactivated through the binding of HSF to the heat shock element found on the DNA upstream of the Hsp genes, in the so called promoter region. In the absence of heat stress, the heat shock factors are present as monomers. Upon heat stress, however, the heat shock factors form trimers, which are the active components, able to bind to heat shock elements. Once HSF is bound to the heat shock element in the promoter of Hsp genes, the gene following the promoter region is transcriptionally active.
(§2) Reporter plasmids, containing the Hsp70 and/or Hsp25 promoter conjugated to either YFP or GFP (yellow or green fluorescent protein), were stably transfected into the cells and the expression of YFP or GFP was followed by flow cytometry. Cells were either kept at 37° C. or exposed to heat shock at 42° C. for 1 hour followed by a 16 hour recovery period at 37° C. in the presence or absence of different concentrations of the test compound. After recovery the expression of YFP or GFP which is in straight correlation with the promoter activity of Hsp70 or Hsp27 genes was followed by measuring the fluorescence intensity of the cells by flow cytometry. Fluorescence intensity is in straight correlation with the amount of fluorescent protein (GFP or YFP) produced under the control of hsp promoter. The mean fluorescence intensity of YFP or GFP produced is shown as “Hsp promoter activity”.
(§3) Cells were homogenously distributed on 6-well plates in 1×10^5 cells/well density. B16-pHsp25-GFP and B16-pHsp70-YFP melanoma cells were grown in RPMI-1640 medium supplemented with 10% Fetal bovine serum (FBS), penicillin (200 units/ml), streptomycin (200 μg/ml) and 2 mM L-Glutamine. For maintaining the SH-SY5Y-pHsp25-GFP and SH-SY5YpHsp70-YFP neuroblastoma cell lines Dulbecco's modified Eagle's medium (DMEM-F-12) containing 10% FBS, 2 mM L-Glutamine, penicillin (200 units/ml), streptomycin (200 μg/ml) and MEM non-essential amino acids were used. Before the treatments both cell lines were incubated at 37° C. in a saturated humidity atmosphere containing 95% air and 5% CO2. After 24 h incubation cells were pretreated with compounds of the invention in four different concentrations (usually in 3; 10; 20 and 50 μM) 30 min before the heat shock at 42° C. for 1 h and then incubated further at 37° C. for 16 h (recovery period). After this procedure cells were trypsinized and suspensed in 500 μl serum-free DMEM-F12 medium. The changes in cells' fluorescence were detected using BD FACSCalibur flow cytometer.

[2] = system: other Hsps; assay: Other in vitro HSP modulating effects (Table 3); format: cell-based, mouse and human; set-up: key: +: co-inducing activity; −: silencing activity; 0: with the experimental methods applied no other HSP modulating effects could be identified
Description: as §1, §2, §3
SY-SY5Y and B16 cells were extracted in NP-40 lysis buffer (PBS pH 7.4, 1% protease inhibitor coctail and 1% Triton X-100). The cell extracts were then constantly agitated at 4° C. for 2 h. The cell extracts were centrifuged at 12000×g for 30 min and supernatants were saved. After the protein concentration measurement 15 μg of total protein was separated by sodium dodecyl sulfate-polyacrylamide gel electrophoresis (SDS-PAGE) under reducing conditions according to the method of Laemmli. Proteins were blotted onto PVDF membrane. The blot was incubated overnight at 4° C. in the presence of mouse α-Hsp25, α-Hsp70, α-Hsp60 és α-Hsp90 monoclonal antibodies diluted in PBS. Then, the membrane was washed three times in PBS-0.05% Tween and incubated for 1 h in peroxidase-conjugated anti-mouse IgG antibody diluted 1:50000 in PBS containing 3% non-fat dry milk. The immune complexes were detected with chemo-luminescent substrate of peroxidase according to the supplier's instructions. Images taken from the membranes were analyzed using AlphaEase FC software.

| Structure (SMILES) | Hsp70 modulation [1] | Other in vitro effects [2] | melting point |
| --- | --- | --- | --- |
| COC(=O)C1=C(C)N(C)C(C)=C(C(=O)OC)C1c1ccc(F)cc1 [Example 2, Dimethyl 1,2,6-trimethyl-4-(4-fluorophenyl)-1,4-dihydropyridine-3,5-dicarboxylate] | + | 0 | 184 to 185 °C |
| COC(=O)C1=C(C)N(C)C(C)=C(C(=O)OC)C1c1ccccc1 [Example 3, Dimethyl 1,2,6-trimethyl-4-phenyl-1,4-dihydropyridine-3,5-dicarboxylate] | + | 0 | 201 to 203 °C |
| COC(=O)C1=C(C)N(C)C(C)=C(C(=O)OC)C1c1cccc(C(F)(F)F)c1 [Example 7, Dimethyl 1,2,6-trimethyl-4-(3-trifluoromethylphenyl)-1,4-dihydropyridine-3,5-dicarboxylate] | + | 0 | 118 to 119 °C |
| COC(=O)C1=C(C)N(C)C(C)=C(C(=O)OC)C1c1ccccc1C(F)(F)F [Example 8, Dimethyl 1,2,6-trimethyl-4-(2-trifluoromethylphenyl)-1,4-dihydropyridine-3,5-dicarboxylate] | + | 0 | 168 to 170 °C |
| COC(=O)C1=C(C)N(C)C(C)=C(C(=O)OC)C1c1ccc(-n2ccnc2)cc1 [Example 10, Dimethyl 1,2,6-trimethyl-4-(4-(1-imidazoly)lphenyl)-1,4-dihydropyridine-3,5-dicarboxylate] | + | 0 | 201 to 202 °C |
| COC(=O)C1=C(C)N(C)C(C)=C(C(=O)OC)C1c1cccnc1 [Example 12, Dimethyl 1,2,6-trimethyl-4-(3-piridyl)-1,4-dihydropyridine-3,5-dicarboxylate] | − | 0 | 173 to 175 °C |
| COC(=O)C1=C(C)N(C)C(C)=C(C(=O)OC)C1c1cc(F)cc(F)c1 [Example 24, Dimethyl 4-(3,5-difluorophenyl)-1,2,6-trimethyl-1,4-dihydropyridine-3,5-dicarboxylate] | + | 0 | 167 to 168 °C |
| COC(=O)C1=C(CCN(C)C)N(C)C(CCN(C)C)=C(C(=O)OC)C1c1cc(F)cc(F)c1 [Example 25, Dimethyl 4-(3,5-Difluorophenyl)-2,6-bis-(2-dimethylaminoethyl)-1-methyl-1,4-dihydropyridine-3,5-dicarboxylate dihydrochloride] | + | 0 |  |
| COC(=O)C1=C(C)N(C)C(CCN(C)C)=C(C(=O)OC)C1c1cc(F)cc(F)c1.Cl (centres unmarked) [Example 26, Dimethyl 4-(3,5-difluorophenyl)-2-(2-dimethylamino-ethyl)-1,6-dimethyl-1,4-dihydropyridine-3,5-dicarboxylate hydrochloride] | + | 0 | 201 to 203 °C |
| COC(=O)C1=C(CCN(C)C)N(C)C(CCN2CCCCC2)=C(C(=O)OC)C1c1ccc(C(F)(F)F)cc1 (centres unmarked) [Example 30, Dimethyl 2-(2-dimethylamino-ethyl)-1-methyl-6-(2-piperidin-1-yl-ethyl)-4-(4-trifluoromethylphenyl)-1,4-dihydropyridine-3,5-dicarboxylate dihydrochloride] | + | 0 |  |
| CCOC(=O)C1=C(C)N(C)C(C)=C(C(=O)OC)C1c1ccc(C(F)(F)F)cc1 (centres unmarked) [Example 32] | + | 0 | 146 to 149 °C |
| CCOC(=O)C1=CN(C2CC2)C=C(C(=O)OCC)C1c1ccc(C(F)(F)F)cc1 [Example 33, Diethyl 1-cyclopropyl-4-(4-trifluoromethylphenyl)-1,4-dihydro-pyridine-3,5-dicarboxylate] | + | 0 | 123 to 124 °C |
| CCOC(=O)C1=CN(Cc2ccccc2)C=C(C(=O)OCC)C1c1ccc(C(F)(F)F)cc1 [Example 34] | + | 0 | 107 to 108 °C |
| CCOC(=O)C1=CN(C)C=C(C(=O)OCC)C1c1ccc(C(F)(F)F)cc1 [Example 37, Diethyl 1-methyl-4-(4-trifluoromethylphenyl)-1,4-dihydropyridine-3,5-dicarboxylate] | + | 0 | 94 to 96 °C |
| CCOC(=O)C1=CN(Cc2ccccc2)C=C(C(=O)OCC)C1c1ccccc1 [Example 38, Diethyl 1-benzyl-4-phenyl-1,4-dihydropyridine-3,5-dicarboxylate, reference compound] | + | 0 |  |
| O=C(O)C1=CN(Cc2ccccc2)C=C(C(=O)O)C1c1ccccc1 [Example 39, 1-Benzyl-4-phenyl-1,4-dihydropyridine-3,5-dicarboxylic acid] | − | 0 | 204 to 206 °C |
| COC(=O)C1=C(C)N(C)C(CCN2CCc3ccccc3C2)=C(C(=O)OC)C1c1ccc(C(F)(F)F)cc1.O=C(O)/C=C/C(=O)O (centres unmarked) [Example 40, Dimethyl 2-[2-(1,2,3,4-tetrahidroisoquinolin-2-yl)-ethyl]-1,6-dimethyl-4-(4-trifluoromethyl-phenyl)-1,4-dihydropyridine-3,5-dicarboxylate fumarate] | + | 0 | 186 to 188 °C |
| COC(=O)C1=C(C)N(C)C(CCN2CCc3cc(OC)c(OC)cc3C2)=C(C(=O)OC)C1c1ccc(C(F)(F)F)cc1.Cl (centres unmarked) [Example 41, Dimethyl 2-[2-(6,7-dimethoxy-1,2,3,4-tetrahydroisoquinolin-2-yl)-ethyl]-1,6-dimethyl-4-(4-trifluoromethylphenyl)-1,4-dihydropyridine-3,5-dicarboxylate hydrochloride] | + | 0 | 176 to 181 °C |
| COC(=O)C1=C(CCN(C)C)N(C)C(CCN2CCc3cc(OC)c(OC)cc3C2)=C(C(=O)OC)C1c1ccc(C(F)(F)F)cc1 (centres unmarked) [Example 42, Dimethyl 2-[2-(6,7-dimethoxy-1,2,3,4-tetrahydroisoquinolin-2-yl)-ethyl]-6-(2-dimethylamino-ethyl)-1-methyl-4-(4-trifluoromethylphenyl)-1,4-dihydropyridine-3,5-dicarboxylate dihydrochloride] | + | 0 |  |
| COC(=O)C1=C(C)N(C)C(C)=C(C(=O)OC)C1c1ccco1 [Example 44, Dimethyl 4-(furan-2-yl-1,2,6-trimethyl-1,4-dihydropyridine-3,5-dicarboxylate] | + | 0 | 142 to 143 °C |
| COC(=O)C1=C(C)N(C)C(C)=C(C(=O)OC)C1c1ccsc1 [Example 45, Dimethyl 1,2,6-Trimethyl-4-(thiophen-3-yl)-1,4-dihydropyridine-3,5-dicarboxylate] | + | 0 | 187 to 189 °C |
